Measurements reported in ChEMBL document CHEMBL3045951, “Toxicities and sublethal effects of seven neonicotinoid insecticides on survival, growth and reproduction of imidacloprid-resistant cotton aphid, Aphis gossypii” (2011).
≈ marks a conversion by molar mass, not a printed value.

Assays:
Type in all cases: functional
Aphis gossypii [1] = assay: Insecticidal activity against imidacloprid-resistant Aphis gossypii RF45 (cotton aphid) in cotton leaves assessed as mortality measured after 48 hr by dipping method
Aphis gossypii [2] = assay: Resistance ratio, LC50 for Aphis gossypii RF45 (cotton aphid) to LC50 for Aphis gossypii SS
Aphis gossypii [3] = assay: Insecticidal activity against Aphis gossypii SS (cotton aphid) in cotton leaves assessed as mortality measured after 48 hr by dipping method
Aphis gossypii [4] = assay: Insecticidal activity against imidacloprid-resistant Aphis gossypii (cotton aphid) in cotton leaves assessed as longevity at LC20 concentration
Aphis gossypii [5] = system: Aphis gossypii
Description: Insecticidal activity against imidacloprid-resistant Aphis gossypii (cotton aphid) in cotton leaves assessed as inhibition of honeydew excretion at LC20 concentration measured after 72 hr by dipping method

Aphis gossypii [6] = assay: Insecticidal activity against imidacloprid-resistant Aphis gossypii (cotton aphid) in cotton leaves assessed as mortality measured after 72 hr by dipping method
Aphis gossypii [7] = assay: Insecticidal activity against cotton aphid Aphis gossypii F0 (cotton aphid) in cotton leaves assessed as mortality measured after 48 hr by dipping method
Aphis gossypii [8] = assay: Resistance ratio, LC50 for Aphis gossypii F9 (cotton aphid) to LC50 for Aphis gossypii F0
Aphis gossypii [9] = assay: Resistance ratio, LC50 for Aphis gossypii F6 (cotton aphid) to LC50 for Aphis gossypii F0
Aphis gossypii [10] = assay: Resistance ratio, LC50 for Aphis gossypii F12 (cotton aphid) to LC50 for Aphis gossypii F0
Aphis gossypii [11] = assay: Resistance ratio, LC50 for Aphis gossypii F45 (cotton aphid) to LC50 for Aphis gossypii F0
Aphis gossypii [12] = assay: Resistance ratio, LC50 for Aphis gossypii F42 (cotton aphid) to LC50 for Aphis gossypii F0
Aphis gossypii [13] = assay: Resistance ratio, LC50 for Aphis gossypii F3 (cotton aphid) to LC50 for Aphis gossypii F0
Aphis gossypii [14] = assay: Insecticidal activity against cotton aphid Aphis gossypii F30 (cotton aphid) in cotton leaves assessed as mortality measured after 48 hr by dipping method
Aphis gossypii [15] = assay: Resistance ratio, LC50 for Aphis gossypii F33 (cotton aphid) to LC50 for Aphis gossypii F0
Aphis gossypii [16] = assay: Insecticidal activity against cotton aphid Aphis gossypii F33 (cotton aphid) in cotton leaves assessed as mortality measured after 48 hr by dipping method
Aphis gossypii [17] = assay: Resistance ratio, LC50 for Aphis gossypii F27 (cotton aphid) to LC50 for Aphis gossypii F0
Aphis gossypii [18] = assay: Insecticidal activity against cotton aphid Aphis gossypii F3 (cotton aphid) in cotton leaves assessed as mortality measured after 48 hr by dipping method
Aphis gossypii [19] = assay: Resistance ratio, LC50 for Aphis gossypii F18 (cotton aphid) to LC50 for Aphis gossypii F0
Aphis gossypii [20] = assay: Insecticidal activity against cotton aphid Aphis gossypii F21 (cotton aphid) in cotton leaves assessed as mortality measured after 48 hr by dipping method
Aphis gossypii [21] = assay: Insecticidal activity against cotton aphid Aphis gossypii F36 (cotton aphid) in cotton leaves assessed as mortality measured after 48 hr by dipping method
Aphis gossypii [22] = assay: Resistance ratio, LC50 for Aphis gossypii F24 (cotton aphid) to LC50 for Aphis gossypii F0
Aphis gossypii [23] = assay: Insecticidal activity against cotton aphid Aphis gossypii F45 (cotton aphid) in cotton leaves assessed as mortality measured after 48 hr by dipping method
Aphis gossypii [24] = assay: Insecticidal activity against cotton aphid Aphis gossypii F24 (cotton aphid) in cotton leaves assessed as mortality measured after 48 hr by dipping method
Aphis gossypii [25] = assay: Insecticidal activity against cotton aphid Aphis gossypii F6 (cotton aphid) in cotton leaves assessed as mortality measured after 48 hr by dipping method
Aphis gossypii [26] = assay: Resistance ratio, LC50 for Aphis gossypii F21 (cotton aphid) to LC50 for Aphis gossypii F0
Aphis gossypii [27] = assay: Resistance ratio, LC50 for Aphis gossypii F39 (cotton aphid) to LC50 for Aphis gossypii F0
Aphis gossypii [28] = assay: Insecticidal activity against cotton aphid Aphis gossypii F18 (cotton aphid) in cotton leaves assessed as mortality measured after 48 hr by dipping method
Aphis gossypii [29] = assay: Insecticidal activity against cotton aphid Aphis gossypii F9 (cotton aphid) in cotton leaves assessed as mortality measured after 48 hr by dipping method
Aphis gossypii [30] = assay: Insecticidal activity against cotton aphid Aphis gossypii F12 (cotton aphid) in cotton leaves assessed as mortality measured after 48 hr by dipping method
Aphis gossypii [31] = assay: Insecticidal activity against cotton aphid Aphis gossypii F39 (cotton aphid) in cotton leaves assessed as mortality measured after 48 hr by dipping method
Aphis gossypii [32] = assay: Insecticidal activity against cotton aphid Aphis gossypii F27 (cotton aphid) in cotton leaves assessed as mortality measured after 48 hr by dipping method
Aphis gossypii [33] = assay: Resistance ratio, LC50 for Aphis gossypii F36 (cotton aphid) to LC50 for Aphis gossypii F0
Aphis gossypii [34] = assay: Insecticidal activity against cotton aphid Aphis gossypii F15 (cotton aphid) in cotton leaves assessed as mortality measured after 48 hr by dipping method
Aphis gossypii [35] = assay: Insecticidal activity against cotton aphid Aphis gossypii F42 (cotton aphid) in cotton leaves assessed as mortality measured after 48 hr by dipping method
Aphis gossypii [36] = assay: Resistance ratio, LC50 for Aphis gossypii F15 (cotton aphid) to LC50 for Aphis gossypii F0
Aphis gossypii [37] = assay: Resistance ratio, LC50 for Aphis gossypii F30 (cotton aphid) to LC50 for Aphis gossypii F0

Structure (SMILES): CCN(Cc1ccc(Cl)nc1)/C(=C/[N+](=O)[O-])NC [NITENPYRAM]
- LC50 (Aphis gossypii [1]): 14.3 microg/mL2
- RatioLC50 (Aphis gossypii [2]): 5.78
- LC50 (Aphis gossypii [3]): 2.47 microg/mL2
- Survival (Aphis gossypii [4]): 8.42 days
- inhibition (INH) (Aphis gossypii [5]): 28.3%
- LC20 (Aphis gossypii [6]): 10.5 µg/mL (≈ 38.8 µM)

Structure (SMILES): C/C(=N\C#N)N(C)Cc1ccc(Cl)nc1 [ACETAMIPRID]
- LC50 (Aphis gossypii [1]): 12.4 microg/mL2
- RatioLC50 (Aphis gossypii [2]): 4.52
- LC50 (Aphis gossypii [3]): 2.73 microg/mL2
- Survival (Aphis gossypii [4]): 11.4 days
- inhibition (INH) (Aphis gossypii [5]): 40.2%
- LC20 (Aphis gossypii [6]): 8.36 µg/mL (≈ 37.5 µM)

Structure (SMILES): N#C/N=C1\SCCN1Cc1ccc(Cl)nc1 [THIACLOPRID]
- LC50 (Aphis gossypii [1]): 8.69 microg/mL2
- RatioLC50 (Aphis gossypii [2]): 3.68
- LC50 (Aphis gossypii [3]): 2.36 microg/mL2
- Survival (Aphis gossypii [4]): 10.6 days
- inhibition (INH) (Aphis gossypii [5]): 36.9%
- LC20 (Aphis gossypii [6]): 5.45 µg/mL (≈ 21.6 µM)

Structure (SMILES): CN/C(=N\[N+](=O)[O-])NCc1cnc(Cl)s1 [CLOTHIANIDINE]
- LC50 (Aphis gossypii [1]): 2.18 microg/mL2
- RatioLC50 (Aphis gossypii [2]): 1.2
- LC50 (Aphis gossypii [3]): 1.82 microg/mL2
- Survival (Aphis gossypii [4]): 6.61 days
- inhibition (INH) (Aphis gossypii [5]): 72.7%
- LC20 (Aphis gossypii [6]): 1.23 µg/mL (≈ 4.93 µM)

Structure (SMILES): CN/C(=N/CC1CCOC1)N[N+](=O)[O-] (stereo not drawn) [DINOTEFURAN]
- LC50 (Aphis gossypii [1]): 1.29 microg/mL2
- RatioLC50 (Aphis gossypii [2]): 1.07
- LC50 (Aphis gossypii [3]): 1.2 microg/mL2
- Survival (Aphis gossypii [4]): 2.95 days
- inhibition (INH) (Aphis gossypii [5]): 82.2%
- LC20 (Aphis gossypii [6]): 0.88 µg/mL (≈ 4.35 µM)

Structure (SMILES): O=[N+]([O-])/N=C1\NCCN1Cc1ccc(Cl)nc1 [IMIDACLOPRID]
- LC50 (Aphis gossypii [7]): 0.32 microg/mL2
- RatioLC50 (Aphis gossypii [8]): 4.81
- RatioLC50 (Aphis gossypii [9]): 3.84
- RatioLC50 (Aphis gossypii [10]): 7.53
- RatioLC50 (Aphis gossypii [11]): 41.7
- RatioLC50 (Aphis gossypii [12]): 41.1
- RatioLC50 (Aphis gossypii [13]): 1.72
- LC50 (Aphis gossypii [14]): 9.12 microg/mL2
- LC50 (Aphis gossypii [1]): 13.5 microg/mL2
- RatioLC50 (Aphis gossypii [2]): 41.7
- RatioLC50 (Aphis gossypii [15]): 33.4
- LC50 (Aphis gossypii [16]): 10.7 microg/mL2
- RatioLC50 (Aphis gossypii [17]): 22.2
- LC50 (Aphis gossypii [18]): 0.55 microg/mL2
- RatioLC50 (Aphis gossypii [19]): 13.1
- LC50 (Aphis gossypii [20]): 5.17 microg/mL2
- LC50 (Aphis gossypii [21]): 12.2 microg/mL2
- RatioLC50 (Aphis gossypii [22]): 19.8
- LC50 (Aphis gossypii [23]): 13.5 microg/mL2
- LC50 (Aphis gossypii [24]): 6.35 microg/mL2
- LC50 (Aphis gossypii [3]): 0.32 microg/mL2
- LC50 (Aphis gossypii [25]): 1.23 microg/mL2
- RatioLC50 (Aphis gossypii [26]): 16.2
- Survival (Aphis gossypii [4]): 13.6 days
- RatioLC50 (Aphis gossypii [27]): 39.3
- LC50 (Aphis gossypii [28]): 4.2 microg/mL2
- LC50 (Aphis gossypii [29]): 1.54 microg/mL2
- inhibition (INH) (Aphis gossypii [5]): 23.4%
- LC50 (Aphis gossypii [30]): 2.41 microg/mL2
- LC20 (Aphis gossypii [6]): 10.6 µg/mL (≈ 41.5 µM)
- LC50 (Aphis gossypii [31]): 12.6 microg/mL2
- LC50 (Aphis gossypii [32]): 7.1 microg/mL2
- RatioLC50 (Aphis gossypii [33]): 38.2
- LC50 (Aphis gossypii [34]): 3.34 microg/mL2
- LC50 (Aphis gossypii [35]): 13.2 microg/mL2
- RatioLC50 (Aphis gossypii [36]): 10.4
- RatioLC50 (Aphis gossypii [37]): 28.5

Structure (SMILES): CN1COCN(Cc2cnc(Cl)s2)/C1=N\[N+](=O)[O-] [THIAMETHOXAM]
- LC50 (Aphis gossypii [1]): 1.69 microg/mL2
- RatioLC50 (Aphis gossypii [2]): 1.06
- LC50 (Aphis gossypii [3]): 1.6 microg/mL2
- Survival (Aphis gossypii [4]): 6.78 days
- inhibition (INH) (Aphis gossypii [5]): 73.7%
- LC20 (Aphis gossypii [6]): 0.96 µg/mL (≈ 3.29 µM)
